Measured values: ChEMBL document CHEMBL5241058, “Pyrazole-based analogs as potential antibacterial agents against methicillin-resistance staphylococcus aureus (MRSA) and its SAR elucidation” (Eur J Med Chem, 2021)
Converted amounts (≈) assume the structure as drawn. One block for each molecule: values may come before it.

Columns and labels:
Type in all cases: functional
[1] = system: Staphylococcus aureus; experiment: Antimicrobial activity against Methicillin-resistant Staphylococcus aureus ATCC 43300 assessed as bacterial growth inhibition by microdilution method
[2] = system: Staphylococcus aureus; experiment: Antimicrobial activity against Methicillin-resistant Staphylococcus aureus assessed as bacterial growth inhibition
[3] = system: Staphylococcus aureus; experiment: Antimicrobial activity against Methicillin-resistant Staphylococcus aureus CCARM 3506 assessed as bacterial growth inhibition incubated for 24 hrs by ELISA assay
[4] = system: Staphylococcus aureus; experiment: Antimicrobial activity against Methicillin-resistant Staphylococcus aureus ATCC 43300 assessed as bacterial growth inhibition incubated for 24 hrs by microdilution method; settings: ATCC43300
[5] = system: Staphylococcus aureus; experiment: Antimicrobial activity against Methicillin-resistant Staphylococcus aureus assessed as bacterial growth inhibition incubated for 24 to 48 hrs by microdilution method; settings: time 24-48 hrs
[6] = system: Pseudomonas aeruginosa; experiment: Antimicrobial activity against Pseudomonas aeruginosa ATCC 27853 assessed as bacterial growth inhibition incubated for 18 hrs by microdilution method
[7] = system: Escherichia coli; experiment: Antimicrobial activity against Escherichia coli ATCC 8739 assessed as bacterial growth inhibition incubated for 18 hrs by microdilution method
[8] = system: Salmonella enterica subsp. enterica; experiment: Antimicrobial activity against Salmonella typhimurium […] assessed as bacterial growth inhibition incubated for 18 hrs by microdilution method
[9] = system: Klebsiella pneumoniae; experiment: Antimicrobial activity against Klebsiella pneumoniae ATCC 314588 assessed as bacterial growth inhibition incubated for 18 hrs by microdilution method
[10] = system: Staphylococcus aureus; experiment: Antimicrobial activity against vancomycin intermediate-resistant Staphylococcus aureus assessed as bacterial growth inhibition incubated for 24 hrs by microdilution method
[11] = system: Staphylococcus aureus; experiment: Antimicrobial activity against Staphylococcus aureus MTCC 96 assessed as bacterial growth inhibition incubated for 24 to 48 hrs; settings: time 24-48 hrs
[12] = system: Staphylococcus aureus; experiment: Antimicrobial activity against Staphylococcus aureus MTCC 442 assessed as bacterial growth inhibition incubated for 24 to 48 hrs; settings: time 24-48 hrs
[13] = system: Staphylococcus aureus; experiment: Antimicrobial activity against Methicillin-resistant Staphylococcus aureus ATCC 33599 assessed as bacterial growth inhibition

SMILES: O=C1S/C(=C\c2cn(-c3ccccc3)nc2-c2cccc([N+](=O)[O-])c2)C(=O)N1CCCn1ccc2ccccc21
MIC [1]: 50 µg/mL

SMILES: CC(C)Cn1ncc2c3c(C#N)c4ccc(Br)cc4nc3ccc21
MIC [2]: 6 µg/mL (≈ 15.8 µM)

SMILES: O=C1S/C(=C\c2cn(-c3ccccc3)nc2-c2ccc(Cl)cc2Cl)C(=O)N1CCCn1ccc2ccccc21
MIC [1]: 6.25 µg/mL

SMILES: Cc1nn(-c2ccc(Cl)cc2Cl)c(Oc2ccc(Br)cc2)c1C1N=C(N)NC(NCCc2ccccc2)=N1 (stereo unspecified)
MIC [3]: 0.5 µg/mL (≈ 0.815 µM)

SMILES: CC1(C)S[C@@H]2[C@H](NC(=O)Cc3ccccc3)C(=O)N2[C@H]1C(=O)O [PENICILLIN G]
MIC [2]: 0.06 µg/mL (≈ 0.179 µM)

SMILES: Cc1nn(-c2ccc(Cl)cc2Cl)c(Oc2cccc(Cl)c2)c1C1N=C(N)NC(NCCc2ccccc2)=N1 (stereo unspecified)
MIC [3]: 0.5 µg/mL (≈ 0.879 µM)

SMILES: O=C1CN(c2nnc(-c3cccc(Br)c3)s2)C(c2cn(-c3ccccc3)nc2-c2cccc([N+](=O)[O-])c2)S1 (stereo unspecified)
MBC [2]: 156 µg/mL (≈ 258 µM)

SMILES: Cc1nn(-c2ccccc2)c2c1C(C(=O)O)CC=C(C(=O)O)N2 (stereo unspecified)
MIC [4]: > 500 µg/mL

SMILES: Cc1nn(-c2ccc(C#N)cc2)c2c1C(C(=O)O)CC=C(C(=O)O)N2 (stereo unspecified)
MIC [4]: > 500 µg/mL

SMILES: COc1ccc(C(=O)Nc2c(C(N)=O)cnn2-c2ccc([N+](=O)[O-])cc2[N+](=O)[O-])cc1
MIC [5]: 10 µg/mL (≈ 23.5 µM)

SMILES: Cc1ccc(Oc2c(C3N=C(N)NC(NCCc4ccccc4)=N3)c(C)nn2-c2ccc(Cl)cc2Cl)cc1 (stereo unspecified)
MIC [3]: 0.5 µg/mL (≈ 0.912 µM)

SMILES: Cc1cc(NS(=O)(=O)c2ccc(N)cc2)no1 [SULFAMETHOXAZOLE]
MIC [2]: 16 µg/mL (≈ 63.2 µM)

MIC [6]: < 1 µg/mL
MIC [7]: < 1 µg/mL
MIC [8]: < 1 µg/mL
MIC [9]: < 1 µg/mL
SMILES: COc1cccc(-c2nn(-c3ccccc3)cc2-c2nc3ccccn3c2Cc2ccccc2)c1OC

SMILES: O=C(c1cc(C(F)(F)F)n[nH]1)c1cc(Cl)ccc1O
MIC [10]: < 0.125 µg/mL

SMILES: CC1(C)S[C@@H]2[C@H](NC(=O)[C@H](N)c3ccccc3)C(=O)N2[C@H]1C(=O)O [AMPICILLIN]
MIC [2]: 62 µg/mL (≈ 177 µM)

SMILES: O=C(c1cc(C(F)(F)F)n[nH]1)c1ccc(Cl)cc1O
MIC [10]: < 0.125 µg/mL

SMILES: O=C(/C=C/c1cccc(F)c1)N1N=C(c2ccncc2)OC1c1cn(-c2ccccc2)nc1-c1ccc(F)cc1 (stereo unspecified)
MIC [11]: 25 µg/mL (≈ 46.9 µM)
MIC [12]: 25 µg/mL (≈ 46.9 µM)

MIC [6]: < 1 µg/mL
MIC [7]: < 1 µg/mL
MIC [8]: < 1 µg/mL
MIC [9]: < 1 µg/mL
SMILES: Clc1ccc(-c2nn(-c3ccccc3)cc2-c2nc3ccccn3c2Cc2ccccc2)cc1

SMILES: CCCCn1ncc2c3c(C#N)c4ccccc4nc3ccc21
MIC [2]: 2 µg/mL (≈ 6.66 µM)

SMILES: Cc1nn(-c2ccc(Br)cc2)c2c1C(C(=O)O)CC=C(C(=O)O)N2 (stereo unspecified)
MIC [4]: > 500 µg/mL

SMILES: NC(=O)c1cnn(-c2ccc([N+](=O)[O-])cc2[N+](=O)[O-])c1NC(=O)c1ccc([N+](=O)[O-])cc1
MIC [5]: 4 µg/mL (≈ 9.06 µM)

SMILES: O=C(O)c1ccc(-n2cc(/C=N/c3ccc(Cl)cc3Cl)c(-c3ccc4ccccc4c3)n2)cc1
MBC [13]: 6.25 µg/mL (≈ 12.9 µM)
MIC [13]: 0.78 µg/mL (≈ 1.6 µM)

SMILES: O=C(/C=C/c1ccc(F)cc1)N1N=C(c2ccncc2)OC1c1cn(-c2ccccc2)nc1-c1ccc(F)cc1 (stereo unspecified)
MIC [11]: 6.25 µg/mL (≈ 11.7 µM)
MIC [12]: 6.25 µg/mL (≈ 11.7 µM)

SMILES: O=C1S/C(=C\c2cn(-c3ccccc3)nc2-c2ccc([N+](=O)[O-])cc2)C(=O)N1CCCn1ccc2ccccc21
MIC [1]: 12.5 µg/mL

SMILES: Cc1ccc(Oc2c(C3N=C(N)NC(NCCc4ccccc4)=N3)c(C)nn2-c2ccc(Cl)cc2Cl)c(C)c1 (stereo unspecified)
MIC [3]: 0.5 µg/mL (≈ 0.889 µM)

SMILES: O=C(O)c1ccc(-n2cc(/C=N/c3cccc(Cl)c3F)c(-c3ccc4ccccc4c3)n2)cc1
MBC [13]: 12.5 µg/mL (≈ 26.6 µM)
MIC [13]: 0.78 µg/mL (≈ 1.66 µM)

MIC [11]: > 50 µg/mL
MIC [12]: > 50 µg/mL
SMILES: O=C(/C=C/c1cccc([N+](=O)[O-])c1)N1N=C(c2ccncc2)OC1c1cn(-c2ccccc2)nc1-c1ccc(F)cc1 (stereo unspecified)

SMILES: Cc1nn(-c2ccc(Cl)cc2Cl)c(Oc2cccc(C(F)(F)F)c2)c1C1N=C(N)NC(NCCc2ccccc2)=N1 (stereo unspecified)
MIC [3]: 0.5 µg/mL (≈ 0.83 µM)

SMILES: Cc1nn(-c2ccc(Cl)cc2Cl)c(Oc2ccc3ccccc3c2)c1C1N=C(N)NC(NCCc2ccccc2)=N1 (stereo unspecified)
MIC [3]: 0.5 µg/mL (≈ 0.855 µM)

SMILES: Cc1nn(-c2ccc(Cl)cc2Cl)c(Oc2cccc(Br)c2)c1C1N=C(N)NC(NCCc2ccccc2)=N1 (stereo unspecified)
MIC [3]: 0.5 µg/mL (≈ 0.815 µM)
